# Data taken from the supplement of paper PMC10307832.
# Experiments:
# Assay in all cases: relative viability (nuclei count vs DMSO), 5 days (fraction); higher = more cells survive
# PC-3 [JPC-3] = system: PC-3 [JPC-3]
# How it was run: (§1)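 Lung cancer cell lines were pin-tool dosed in 1536-well plates on the day after seeding, with either a lone drug or a fixed anchor-drug dose plus five library-drug doses (not always all listed) in √10 steps. Nuclei were counted on 4× images after 5 days. Relative viability is the ratio of treated-well to vehicle-well nuclei counts, with each value a median of duplicate plates.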
# UMC-11 = system: UMC-11
# How it was run: as §1
# LK-2 = system: LK-2
# How it was run: as §1
# LU99A = system: LU99A
# How it was run: as §1
# SK-LU-1 = system: SK-LU-1
# How it was run: as §1
# NCI-H2228 = system: NCI-H2228
# How it was run: as §1
# LCLC-97TM1 = system: LCLC-97TM1
# How it was run: as §1
# NCI-H1993 = system: NCI-H1993
# How it was run: as §1
# HCC-827 = system: HCC-827
# How it was run: as §1
# NCI-H1650 = system: NCI-H1650
# How it was run: as §1
# LXF-289 = system: LXF-289
# How it was run: as §1
# NCI-H2170 = system: NCI-H2170
# How it was run: as §1
# EPLC-272H = system: EPLC-272H
# How it was run: as §1
# ChaGo-K-1 = system: ChaGo-K-1
# How it was run: as §1
# EKVX = system: EKVX
# How it was run: as §1
# SW 1573 = system: SW 1573
# How it was run: as §1
# NCI-H2405 = system: NCI-H2405
# How it was run: as §1
# NCI-H522 = system: NCI-H522
# How it was run: as §1
# HOP-62 = system: HOP-62
# How it was run: as §1
# NCI-H441 = system: NCI-H441
# How it was run: as §1
# H3255 = system: H3255
# How it was run: as §1
# NCI-H1355 = system: NCI-H1355
# How it was run: as §1
# NCI-H3122 = system: NCI-H3122
# How it was run: as §1
compound,measurement,setting,value
Cc1csc(=NC2CCCCC2)n1/N=C/c1ccc(O)c(O)c1O [MIM1] + CC(=O)c1c(C)c2cnc(Nc3ccc(N4CCNCC4)cn3)nc2n(C2CCCC2)c1=O [Palbociclib] (partner 0.5 µM),relative viability,PC-3 [JPC-3]; first compound 0.2 µM,0.544
same,relative viability,PC-3 [JPC-3]; first compound 0.6325 µM,0.538
same,relative viability,PC-3 [JPC-3]; first compound 2 µM,0.493
same,relative viability,PC-3 [JPC-3]; first compound 6.325 µM,0.446
same,relative viability,PC-3 [JPC-3]; first compound 20 µM,0.343
same,relative viability,UMC-11; first compound 0.2 µM,0.368
same,relative viability,UMC-11; first compound 0.6325 µM,0.318
same,relative viability,UMC-11; first compound 2 µM,0.33
same,relative viability,UMC-11; first compound 6.325 µM,0.362
same,relative viability,UMC-11; first compound 20 µM,0.338
same,relative viability,LK-2; first compound 0.2 µM,0.774
same,relative viability,LK-2; first compound 0.6325 µM,0.495
same,relative viability,LK-2; first compound 2 µM,0.468
same,relative viability,LK-2; first compound 6.325 µM,0.725
same,relative viability,LK-2; first compound 20 µM,0.223
same,relative viability,LU99A; first compound 0.2 µM,0.404
same,relative viability,LU99A; first compound 0.6325 µM,0.405
same,relative viability,LU99A; first compound 2 µM,0.38
same,relative viability,LU99A; first compound 6.325 µM,0.355
same,relative viability,LU99A; first compound 20 µM,0.159
same,relative viability,SK-LU-1; first compound 0.2 µM,0.442
same,relative viability,SK-LU-1; first compound 0.6325 µM,0.397
same,relative viability,SK-LU-1; first compound 2 µM,0.368
same,relative viability,SK-LU-1; first compound 6.325 µM,0.418
same,relative viability,SK-LU-1; first compound 20 µM,0.307
same,relative viability,NCI-H2228; first compound 0.2 µM,0.835
same,relative viability,NCI-H2228; first compound 0.6325 µM,0.646
same,relative viability,NCI-H2228; first compound 2 µM,0.899
same,relative viability,NCI-H2228; first compound 6.325 µM,0.177
same,relative viability,NCI-H2228; first compound 20 µM,0.133
same,relative viability,LCLC-97TM1; first compound 0.2 µM,0.22
same,relative viability,LCLC-97TM1; first compound 0.6325 µM,0.22
same,relative viability,LCLC-97TM1; first compound 2 µM,0.217
same,relative viability,LCLC-97TM1; first compound 6.325 µM,0.169
same,relative viability,LCLC-97TM1; first compound 20 µM,0.0835
same,relative viability,NCI-H1993; first compound 0.2 µM,0.624
same,relative viability,NCI-H1993; first compound 0.6325 µM,0.706
same,relative viability,NCI-H1993; first compound 2 µM,0.659
same,relative viability,NCI-H1993; first compound 6.325 µM,0.514
same,relative viability,NCI-H1993; first compound 20 µM,0.349
same,relative viability,HCC-827; first compound 0.2 µM,0.443
same,relative viability,HCC-827; first compound 0.6325 µM,0.511
same,relative viability,HCC-827; first compound 2 µM,0.454
same,relative viability,HCC-827; first compound 6.325 µM,0.307
same,relative viability,HCC-827; first compound 20 µM,0.227
same,relative viability,NCI-H1650; first compound 0.2 µM,0.446
same,relative viability,NCI-H1650; first compound 0.6325 µM,0.316
same,relative viability,NCI-H1650; first compound 2 µM,0.256
same,relative viability,NCI-H1650; first compound 6.325 µM,0.137
same,relative viability,NCI-H1650; first compound 20 µM,0.136
same,relative viability,LXF-289; first compound 0.2 µM,0.603
same,relative viability,LXF-289; first compound 0.6325 µM,0.594
same,relative viability,LXF-289; first compound 2 µM,0.583
same,relative viability,LXF-289; first compound 6.325 µM,0.535
same,relative viability,LXF-289; first compound 20 µM,0.237
same,relative viability,NCI-H2170; first compound 0.2 µM,0.38
same,relative viability,NCI-H2170; first compound 0.6325 µM,0.398
same,relative viability,NCI-H2170; first compound 2 µM,0.373
same,relative viability,NCI-H2170; first compound 6.325 µM,0.227
same,relative viability,NCI-H2170; first compound 20 µM,0.142
same,relative viability,EPLC-272H; first compound 0.2 µM,0.328
same,relative viability,EPLC-272H; first compound 0.6325 µM,0.332
same,relative viability,EPLC-272H; first compound 2 µM,0.302
same,relative viability,EPLC-272H; first compound 6.325 µM,0.279
same,relative viability,EPLC-272H; first compound 20 µM,0.149
same,relative viability,ChaGo-K-1; first compound 0.2 µM,0.951
same,relative viability,ChaGo-K-1; first compound 0.6325 µM,0.926
same,relative viability,ChaGo-K-1; first compound 2 µM,0.961
same,relative viability,ChaGo-K-1; first compound 6.325 µM,0.7
same,relative viability,ChaGo-K-1; first compound 20 µM,0.163
same,relative viability,EKVX; first compound 0.2 µM,0.332
same,relative viability,EKVX; first compound 0.6325 µM,0.367
same,relative viability,EKVX; first compound 2 µM,0.339
same,relative viability,EKVX; first compound 6.325 µM,0.312
same,relative viability,EKVX; first compound 20 µM,0.286
same,relative viability,SW 1573; first compound 0.2 µM,0.412
same,relative viability,SW 1573; first compound 0.6325 µM,0.501
same,relative viability,SW 1573; first compound 2 µM,0.365
same,relative viability,SW 1573; first compound 6.325 µM,0.325
same,relative viability,SW 1573; first compound 20 µM,0.148
same,relative viability,NCI-H2405; first compound 0.2 µM,0.512
same,relative viability,NCI-H2405; first compound 0.6325 µM,0.549
same,relative viability,NCI-H2405; first compound 2 µM,0.605
same,relative viability,NCI-H2405; first compound 6.325 µM,0.383
same,relative viability,NCI-H2405; first compound 20 µM,0.351
same,relative viability,NCI-H522; first compound 0.2 µM,0.819
same,relative viability,NCI-H522; first compound 0.6325 µM,0.921
same,relative viability,NCI-H522; first compound 2 µM,0.932
same,relative viability,NCI-H522; first compound 6.325 µM,1.13
same,relative viability,NCI-H522; first compound 20 µM,0.61
same,relative viability,HOP-62; first compound 0.2 µM,0.454
same,relative viability,HOP-62; first compound 0.6325 µM,0.44
same,relative viability,HOP-62; first compound 2 µM,0.404
same,relative viability,HOP-62; first compound 6.325 µM,0.431
same,relative viability,HOP-62; first compound 20 µM,0.127
same,relative viability,NCI-H441; first compound 0.2 µM,0.273
same,relative viability,NCI-H441; first compound 0.6325 µM,0.266
same,relative viability,NCI-H441; first compound 2 µM,0.205
same,relative viability,NCI-H441; first compound 6.325 µM,0.186
same,relative viability,NCI-H441; first compound 20 µM,0.114
same,relative viability,H3255; first compound 0.2 µM,0.308
same,relative viability,H3255; first compound 0.6325 µM,0.326
same,relative viability,H3255; first compound 2 µM,0.31
same,relative viability,H3255; first compound 6.325 µM,0.326
same,relative viability,H3255; first compound 20 µM,0.243
same,relative viability,NCI-H1355; first compound 0.2 µM,0.391
same,relative viability,NCI-H1355; first compound 0.6325 µM,0.371
same,relative viability,NCI-H1355; first compound 2 µM,0.41
same,relative viability,NCI-H1355; first compound 6.325 µM,0.385
same,relative viability,NCI-H1355; first compound 20 µM,0.288
same,relative viability,NCI-H3122; first compound 0.2 µM,0.186
same,relative viability,NCI-H3122; first compound 0.6325 µM,0.195
same,relative viability,NCI-H3122; first compound 2 µM,0.174
same,relative viability,NCI-H3122; first compound 6.325 µM,0.187
same,relative viability,NCI-H3122; first compound 20 µM,0.124
